# In PMC6369734, “Spy vs. spy: selecting the best reporter for ^19F NMR competition experiments” (Chemical Communications (Cambridge, England), 2019):
# Read-outs that look alike come from different tables or passages of the source.
# Target: T1, VHL (VBC complex: pVHL54-213, eloB1-104, eloC17-112) (Homo sapiens, UniProt P40337)
# T1 construct: equimolar complex of pVHL54-213, eloB1-104 and; made in house; host or cells: E. coli
# Assay: Surface plasmon resonance (SPR) steady-state binding to immobilised biotinylated AviVBC
# Experimental: The KD of each compound to VHL was determined by surface plasmon resonance (SPR) experiments.
# 3. Protein expression, purification and biotinylation
# The VHL E3 ligase is a multi-protein complex composed of five proteins: VHL protein (pVHL), elongin B (eloB), elongin C (eloC), Cullin-2 (Cul2) and Ring-box protein 1 (Rbx1).[3] Since the compounds developed in this work bind solely to the VHL protein, the VBC complex (equimolar complex of pVHL54-213, eloB1-104 and eloC17-112) was used in all experiments, as it can be readily expressed in E. coli with high yields,[4] while the full E3 ligase would require baculovirus-insect cells expression system.[5] The expression and purification of VBC was performed as described previously by our group[2] and employed directly in all NMR experiments.
# For the surface plasmon resonance (SPR) experiments, a VBC complex containing an AviTagTM in the N-terminus of eloB (AviVBC) was purified using the same procedure described for VBC. The modified eloB/eloC expression plasmid was previously developed in-house by Dr. Michael Roy and kindly shared. The AviVBC complex was site-specifically biotinylated in the AviTag using the GST-BirA method previously described by […]
# 4. Surface plasmon resonance experiments
# The SPR experiments were performed with a Biacore T200 instrument (GE Healthcare). All measurements were performed at 20 °C with buffer containing 10 mM HEPES, pH 7.5, 150 mM NaCl, 1 mM TCEP, 0.005% (v/v) Tween® 20 and 2% (v/v) dimethyl sulfoxide (DMSO). Biotinylated AviVBC (~0.5 μM) was immobilised at 22 °C onto a Series S sensor chip SA (GE Heathcare) to levels of approximately 3500-4000 response units […]
# Solutions of each spy molecule were prepared in buffer at concentrations based on previous structure-activity relationship studies of VHL ligands (K D expected in the nanomolar range for structures like spy molecules 16 and 22, or in the milimolar range for spy molecules similar to 1 and 9). From this first screen, the binding affinities were roughly estimated using the Biacore T200 evaluation software (GE Healthcare), then measurements were repeated using concentrations above and below the KD obtained in the first round to generate better curves for fitting the data accurately. Contact and dissociation times varied across the different compounds tested, but in […]
# dissociated from the surface in less than sixty seconds.
# Data analysis was performed using the steady state responses of the double-referenced sensorgrams (raw data subtracted from blank and reference surface injections) obtained for each concentration tested. These responses were plotted against the respective concentrations and the data fitted to a 1: 1 binding model u sing the Biacore T200 evaluation software and the following equation: […]
# Where Req is the steady-state response at a given concentration C. Deviations in Req were corrected by adding an ‘offset’ term to the equation. KD is the dissociation constant to be determined and RMAX is the maximum response expected for a given compound according to the equation below:
# Where n is the stoichiometry of the interaction ( in this case, n = 1) and RProtein is the immobilization level of protein. MWCompound and MWProtein are the molecular weights of compound and protein, respectively. Sensorgrams and fitting parameters for all spy molecules can be found in section 7.
# [1] = SPR, 20 °C, steady-state 1:1 fit, footnote b values fitted because RMAX was not reached experimentally, read-out: K D, SPR
# [2] = SPR steady-state fit, supplement section 7, read-out: KD (Biacore T200 fit)
# T1 sequence (P40337 54-213): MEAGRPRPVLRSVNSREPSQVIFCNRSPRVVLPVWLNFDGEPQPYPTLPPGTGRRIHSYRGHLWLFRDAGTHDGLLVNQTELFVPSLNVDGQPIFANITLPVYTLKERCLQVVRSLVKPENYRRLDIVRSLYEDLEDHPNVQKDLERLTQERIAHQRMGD
# T1 sequence (Q15370 1-104 partner limits assumed): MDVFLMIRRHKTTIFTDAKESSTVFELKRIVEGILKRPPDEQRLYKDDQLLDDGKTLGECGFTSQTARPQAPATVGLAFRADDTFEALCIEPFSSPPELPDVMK
# T1 sequence (Q15369 17-112 partner limits assumed): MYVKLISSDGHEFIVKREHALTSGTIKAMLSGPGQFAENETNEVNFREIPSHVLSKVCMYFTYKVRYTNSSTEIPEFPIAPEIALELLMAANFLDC
Compound,Kd [1] [µM],Kd [2] [µM],binding kinetics / dissociation rates by SPR (SPR)
CC(=O)N1C[C@H](O)C[C@H]1C(=O)NCc1ccc(Br)cc1C(F)(F)F [Compound 10],1350 ± 94,–,–
CC(C)(C)CC(=O)N1C[C@H](O)C[C@H]1C(=O)NCc1ccc(Br)c(C(F)(F)F)c1 [Compound 3],407 ± 5,407,–
O=C(NCc1ccc(Br)cc1)C1CC(O)CN1C(=O)CC(F)(F)F (centres unmarked) [Compound 19],145 ± 29,145,–
CC(=O)NC(C(=O)N1CC(O)CC1C(=O)NCc1ccc(Br)cc1C(F)(F)F)C(C)(C)C (centres unmarked) [Compound 12],1.14 ± 0.12,1.14,too high to be determined accurately
